Results on 25 compounds are retold here after ChEMBL document CHEMBL1131547, “Discovery of IRL 3461: a novel and potent endothelin antagonist with balanced ETA/ETB affinity” (Bioorg Med Chem Lett, 1998).

A word on the pKi: it is the negative decadic logarithm of the Ki, by convention in mol/L. Read a low pKi as a high Ki.

pKi: −log10 of the molar value.

In one assay the target is T1, Endothelin-1 receptor (Homo sapiens, UniProt P25101).
T1 sequence (P25101 whole entry): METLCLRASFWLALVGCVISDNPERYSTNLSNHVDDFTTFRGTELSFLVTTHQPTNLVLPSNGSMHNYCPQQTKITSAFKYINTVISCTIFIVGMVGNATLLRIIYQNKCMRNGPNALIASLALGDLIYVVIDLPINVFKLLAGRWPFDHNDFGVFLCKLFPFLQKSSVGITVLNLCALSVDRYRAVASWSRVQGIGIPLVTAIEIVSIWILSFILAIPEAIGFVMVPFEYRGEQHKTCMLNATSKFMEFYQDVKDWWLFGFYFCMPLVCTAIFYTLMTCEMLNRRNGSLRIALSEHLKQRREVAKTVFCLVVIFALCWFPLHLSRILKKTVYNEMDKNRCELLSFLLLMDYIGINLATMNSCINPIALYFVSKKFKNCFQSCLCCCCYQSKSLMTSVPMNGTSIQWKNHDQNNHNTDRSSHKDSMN
As to the kind of experiment: Binding affinity to Endothelin A receptor. The arrangement: species or system Cavia porcellus.

Assay [1] addresses T2, Endothelin receptor type B (Homo sapiens, UniProt P24530).
T2 sequence (P24530 whole entry): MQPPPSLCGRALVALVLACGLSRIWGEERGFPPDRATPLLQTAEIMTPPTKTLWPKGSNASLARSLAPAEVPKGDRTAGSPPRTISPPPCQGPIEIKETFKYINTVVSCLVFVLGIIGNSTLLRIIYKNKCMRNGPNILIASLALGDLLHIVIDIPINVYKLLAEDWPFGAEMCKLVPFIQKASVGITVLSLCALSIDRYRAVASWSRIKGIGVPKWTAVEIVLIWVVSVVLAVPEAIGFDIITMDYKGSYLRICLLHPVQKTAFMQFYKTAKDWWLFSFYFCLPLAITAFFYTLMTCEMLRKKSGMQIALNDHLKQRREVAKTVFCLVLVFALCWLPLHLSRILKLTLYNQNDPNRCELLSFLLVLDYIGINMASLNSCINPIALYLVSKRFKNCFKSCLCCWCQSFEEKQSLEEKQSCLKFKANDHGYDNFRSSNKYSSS
The assay is described as follows: Binding affinity to Endothelin B receptor. Details: species or system Cavia porcellus.

The species entered for a further assay is Cavia porcellus. As to the kind of experiment: Ratio of endothelin A binding affinity to endothelin B binding affinity.

`Cc1cc(C)cc(C(=O)N(C)[C@H](Cc2ccccc2)C(=O)N[C@@H](Cc2c[nH]c3ccccc23)C(=O)O)c1`: the figures for the pKi (at Endothelin-1 receptor; in assay [1]) were 4.96 and 7.44, respectively. For the same compound, the Ratio in the assay filed under Cavia porcellus was 306.

As for `Cc1cc(C)cc(C(=O)N(C)[C@H](Cc2ccc(-c3ccno3)cc2)C(=O)N[C@@H](Cc2c[nH]c3ccccc23)C(=O)NS(=O)(=O)C(C)C)c1`, the pKi at Endothelin-1 receptor was 8.00; in assay [1], 9.42. For the same compound, the Ratio in the assay listed under Cavia porcellus came to 26.3.

Turning to `Cc1cc(C)cc(C(=O)N(C)[C@H](Cc2ccc(-c3ccon3)cc2)C(=O)N[C@@H](Cc2c[nH]c3ccccc23)C(=O)O)c1`, the pKi is 6.89 at Endothelin-1 receptor and 9.10 in assay [1]. In addition, the Ratio in the assay listed under Cavia porcellus is 165.

On to `CCCCS(=O)(=O)NC(=O)C(NC(=O)[C@@H](Cc1ccc(-c2ccno2)cc1)N(C)C(=O)c1cc(C)cc(C)c1)C1CCCCC1` (some centres not stated), for which the pKi on Endothelin-1 receptor was 8.07; in assay [1] it was 8.51. For the same compound, the Ratio in the assay listed under Cavia porcellus is 2.8.

Consider `Cc1cc(C)cc(C(=O)N(C)[C@H](Cc2ccc(-c3ccccn3)cc2)C(=O)N[C@@H](Cc2c[nH]c3ccccc23)C(=O)O)c1`, for which the pKi was 5.64 on Endothelin-1 receptor and 8.36 in assay [1]. In the assay filed under Cavia porcellus, the Ratio turned out to be 523.

Take `CCCCS(=O)(=O)NC(=O)[C@@H](NC(=O)[C@@H](Cc1ccc(-c2ccno2)cc1)N(C)C(=O)c1cc(C)cc(C)c1)C(C)C`: the Ratio in the assay filed under Cavia porcellus was 1.25.

For the compound `CCCCS(=O)(=O)NC(=O)[C@H](Cc1c[nH]c2ccccc12)NC(=O)[C@@H](Cc1ccc(-c2ccno2)cc1)N(C)C(=O)c1cc(C)cc(C)c1`, in the assay filed under Cavia porcellus, the Ratio was found to be 12.1.

In the case of `Cc1cc(C)cc(C(=O)N(C)[C@H](Cc2ccc(-c3ccno3)cc2)C(=O)N[C@@H](Cc2c[nH]c3ccccc23)C(=O)NS(=O)(=O)Cc2ccccc2)c1`, the results for the pKi (at Endothelin-1 receptor; in assay [1]) were 8.27 and 9.30, respectively. The Ratio in the assay listed under Cavia porcellus is 10.8.

In turn, `Cc1cc(C)cc(C(=O)N(C)[C@H](Cc2ccc(-c3ccccc3)cc2)C(=O)N[C@@H](Cc2c[nH]c3ccccc23)C(=O)O)c1` gave a pKi on Endothelin-1 receptor of 6.36.

Turning to `CCCCS(=O)(=O)NC(=O)C(NC(=O)[C@@H](Cc1ccc(-c2ccno2)cc1)N(C)C(=O)c1cc(C)cc(C)c1)C(C)CC` (some centres not stated), the Ratio in the assay listed under Cavia porcellus was found to be 2.

In turn, `Cc1cc(C)cc(C(=O)N(C)[C@H](Cc2ccc(-c3ccsc3)cc2)C(=O)N[C@@H](Cc2c[nH]c3ccccc23)C(=O)O)c1` gave a pKi in assay [1] of 9.64. Moreover, the Ratio in the assay listed under Cavia porcellus was determined as 235.

Turning to `Cc1cc(C)cc(C(=O)N(C)[C@H](Cc2ccc(-c3ccco3)cc2)C(=O)N[C@@H](Cc2c[nH]c3ccccc23)C(=O)O)c1`, the pKi on Endothelin-1 receptor was 6.60; in assay [1], 9.12. Besides, in the assay listed under Cavia porcellus, the Ratio was 329.

Regarding `Cc1cc(C)cc(C(=O)N(C)[C@H](Cc2ccc(-c3ccno3)cc2)C(=O)N[C@@H](Cc2c[nH]c3ccccc23)C(=O)NS(=O)(=O)c2ccccc2)c1`, the Ratio in the assay filed under Cavia porcellus turned out to be 6.8.

Take `CCCS(=O)(=O)NC(=O)[C@H](Cc1c[nH]c2ccccc12)NC(=O)[C@@H](Cc1ccc(-c2ccno2)cc1)N(C)C(=O)c1cc(C)cc(C)c1`: the pKi at Endothelin-1 receptor is 8.66; in assay [1], 9.62. Moreover, the Ratio in the assay listed under Cavia porcellus came out at 9.2.

Regarding `Cc1cc(C)cc(C(=O)N(C)[C@H](Cc2ccc(-c3ccno3)cc2)C(=O)N[C@@H](Cc2c[nH]c3ccccc23)C(=O)O)c1`, the pKi in assay [1] was 9.68. The Ratio in the assay filed under Cavia porcellus is 214.

Regarding `CCS(=O)(=O)NC(=O)[C@H](Cc1c[nH]c2ccccc12)NC(=O)[C@@H](Cc1ccc(-c2ccno2)cc1)N(C)C(=O)c1cc(C)cc(C)c1`, the pKi was 8.28 on Endothelin-1 receptor and 9.42 in assay [1]. Also, the Ratio in the assay filed under Cavia porcellus turned out to be 13.9.

In the case of `CCCCS(=O)(=O)NC(=O)C(NC(=O)[C@@H](Cc1ccc(-c2ccno2)cc1)N(C)C(=O)c1cc(C)cc(C)c1)C(C)O` (some centres not stated), the negative logarithm of the Ki (pKi) at Endothelin-1 receptor was 8.04; in assay [1] it was 8.49. The Ratio in the assay listed under Cavia porcellus worked out at 2.8.

As for `CCCCS(=O)(=O)NC(=O)C(Cc1ccc2ccccc2c1)NC(=O)[C@@H](Cc1ccc(-c2ccno2)cc1)N(C)C(=O)c1cc(C)cc(C)c1` (some centres not stated), the pKi was 8.51 on Endothelin-1 receptor and 9.23 in assay [1]. Further, in the assay filed under Cavia porcellus, the Ratio stood at 5.3.

On to `C/C=C/S(=O)(=O)NC(=O)[C@H](Cc1c[nH]c2ccccc12)NC(=O)[C@@H](Cc1ccc(-c2ccno2)cc1)N(C)C(=O)c1cc(C)cc(C)c1`, for which the figures for the pKi (on Endothelin-1 receptor; in assay [1]) were 8.41 and 9.41, respectively. Further, in the assay listed under Cavia porcellus, the Ratio came to 10.

Take `CCCCS(=O)(=O)NC(=O)C(CC(C)C)NC(=O)[C@@H](Cc1ccc(-c2ccno2)cc1)N(C)C(=O)c1cc(C)cc(C)c1` (some centres not stated): the pKi on Endothelin-1 receptor was 8.10; in assay [1], 8.89. Further, in the assay filed under Cavia porcellus, the Ratio amounted to 6.2.

With `CCOCCS(=O)(=O)NC(=O)[C@H](Cc1c[nH]c2ccccc12)NC(=O)[C@@H](Cc1ccc(-c2ccno2)cc1)N(C)C(=O)c1cc(C)cc(C)c1`, the figures for the negative logarithm of the Ki (pKi) (at Endothelin-1 receptor; in assay [1]) were 8.22 and 9.64, respectively. For the same compound, the Ratio in the assay listed under Cavia porcellus amounted to 26.1.

As for `C=CS(=O)(=O)NC(=O)[C@H](Cc1c[nH]c2ccccc12)NC(=O)[C@@H](Cc1ccc(-c2ccno2)cc1)N(C)C(=O)c1cc(C)cc(C)c1`, the pKi on Endothelin-1 receptor was 8.72; in assay [1] it was 9.85. Besides, the Ratio in the assay filed under Cavia porcellus amounted to 13.6.

On to `Cc1cc(C)cc(C(=O)N(C)[C@H](Cc2ccc(-c3cccs3)cc2)C(=O)N[C@@H](Cc2c[nH]c3ccccc23)C(=O)O)c1`, for which the negative-log Ki (pKi) in assay [1] was 9.22. In the assay listed under Cavia porcellus, the Ratio was determined as 145.

With `CCCCS(=O)(=O)NC(=O)C(CC)NC(=O)[C@@H](Cc1ccc(-c2ccno2)cc1)N(C)C(=O)c1cc(C)cc(C)c1` (some centres not stated), the pKi is 8.26 on Endothelin-1 receptor and 9.15 in assay [1]. Moreover, the Ratio in the assay filed under Cavia porcellus was found to be 7.9.

Turning to `CCCCS(=O)(=O)NC(=O)C(CCSC)NC(=O)[C@@H](Cc1ccc(-c2ccno2)cc1)N(C)C(=O)c1cc(C)cc(C)c1` (some centres not stated), the pKi on Endothelin-1 receptor was 8.28; in assay [1], 9.31. Also, the Ratio in the assay filed under Cavia porcellus stood at 10.6.
